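In this assay, cells in 96-well plates receive the compound at five concentrations for 48 hours. Endpoints are linearly interpolated between the surrounding concentrations. The concentration for full growth arrest is given as TGI.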
Experiments:
Assay in all cases: inhibition of tumour cell growth, NCI panel, 48 h
M19-MEL melanoma = system: M19-MEL melanoma
LXFL 529 NSCLC = system: LXFL 529 NSCLC
DMS 273 small cell lung = system: DMS 273 small cell lung
XF 498 CNS = system: XF 498 CNS
SNB-78 CNS = system: SNB-78 CNS
DLD-1 colon = system: DLD-1 colon
HOP-18 NSCLC = system: HOP-18 NSCLC
DMS 114 small cell lung = system: DMS 114 small cell lung

Row | SMILES | TGI (M19-MEL melanoma) [µM] | TGI (LXFL 529 NSCLC) [µM] | TGI (DMS 273 small cell lung) [µM] | TGI (XF 498 CNS) [µM] | TGI (SNB-78 CNS) [µM] | TGI (DLD-1 colon) [µM] | TGI (HOP-18 NSCLC) [µM] | TGI (DMS 114 small cell lung) [µM]
1 | CN(C)CCNC(=O)c1ccccc1Nc1c(Cl)cccc1Cl | 24.5 | 32.4 | 30.5 | 22 | 33.8 | 37.1 | – | –
2 | COc1ccc2c(c1)CC[C@@H]1C2CC[C@]2(C)C(=N\O)/C(=N/O)CC12 (some centres undefined) | 37 | 26.8 | 26.7 | 29.6 | 47.5 | 36.6 | 30.4 | –
3 | COc1cc(C(=O)O)cc2c1[nH]c1ccccc12 | > 25 | > 25 | > 25 | – | > 25 | > 25 | – | > 25
4 | SCc1ccc(-c2ccc(CS)cc2)cc1 | 35.7 | 28.7 | 58.4 | 36.6 | 51 | 34.1 | 30.9 | 25.6
5 | NCc1ccc(O)c(O)c1O | 26.9 | 30.6 | 31 | 56.4 | > 100 | 37.2 | > 100 | 42.8
6 | CC(C)NC1CCCCC2c3cc(F)ccc3[C@]12O (some centres undefined) | > 100 | > 100 | > 100 | – | > 100 | > 100 | > 100 | > 100
7 | Cc1ccc([N+]2=NC(c3ccc([N+](=O)[O-])cc3)=NN(c3ccccc3)C2)cc1 | > 100 | > 100 | > 100 | > 100 | > 100 | > 100 | – | > 100
